Common to all, as to type: in vivo, mouse
The subject of assay [1] is serum IL-4 and IFN-γ. Kind of assay: Serum IL-4 and IFN-γ by ELISA after i.p. glycolipid injection into naïve B6 mice. The protocol: FIG. 10: Effect of glycolipid agonists on cytokine expression in naïve B6 mice, and on iNKT cells in septic B6 mice. (a) Naïve B6 mice were injected i.p. with 4 μg OCH or KRN7000 or C20:2, and bled at 2, 12, and 24 hours post-injection. Serum samples were assayed for IL-4 and IFN-γ by enzyme-linked immunosorbent assay (ELISA). […] Vehicle-treated mice had cytokine levels below limits of detection. (b) B6 mice were given an intraperitoneal injection of fecal slurry (500 μL of a 90 mg/mL solution) to induce IAS and concomitantly treated with 4 μg of vehicle, OCH, or KRN7000. After 24 hours, mice were sacrificed, and cell suspensions from the liver and spleen were stained for the flow cytometric detection of CD1d tetramer+ TCRβ+iNKT cells.
Lyophilized OCH was generously provided by the National Institutes of Health (NIH) Tetramer Core Facility (Emory University, Atlanta, Ga.). Each vial containing 0.2 mg of OCH was solubilized in a vehicle solution containing 1 mL of sterile distilled water, 0.5% Tween 20, 56 mg of sucrose and 7.5 mg of histidine, and stored as aliquots at 4° C. until use. KRN7000 (α-GalCer, C26:0/C18:0) was purchased from Funakoshi Co. Ltd. (Tokyo, Japan), solubilized at 1 mg/ml in dimethylsulphoxide (DMSO), and stored as aliquots at −20° C. until use (29); the control vehicle was 2% DMSO in phosphate-buffered saline (PBS). C20:2 was synthesized and used as previously published (30, 31). For in vivo experiments, mice were injected intraperitoneally (i.p.) with a single dose of glycolipid (4 μg/dose) (30) within twenty minutes after induction of IAS.
Cytokine concentrations were determined by commercially available specific ELISA assays for IL-4 and IFN-γ (Ready-Set-Go kits, eBioscience). ODs were measured on a Benchmark Microplate Reader (Bio-Rad) at a wavelength of 450 nm for both cytokines.
A general note: In an ELISA, binding on a coated surface is turned into a signal by an enzyme label.

In assay [2] the test system is bacterial counts in blood and multiple organs. Kind of assay: Microbial growth (CFU) from tissue homogenates and peripheral blood of septic mice. The conditions noted are these: septic B6 mice; compared between vehicle, OCH and KRN7000 treatments. The protocol:
Whole hearts, lungs (left and right), kidneys (left and right), spleen, and liver were removed from euthanized mice and homogenized in 5 mL of PBS. Homogenates were serially diluted 1:10 in PBS and plated on bovine heart infusion (BHI) agar. Plates were grown aerobically at 37° C. overnight to determine tissue colony-forming units (CFU). Intra-cardiac blood (10 μL) was collected in a heparinized syringe from the right ventricle, serially diluted 1:10 with PBS, and plated on BHIagar to determine blood CFU.

Assay [3] concerns splenocyte apoptosis. Nature of the assay: Histology (H&E) and TUNEL staining of spleen, liver and omentum of septic B6 mice. The conditions noted are these: for liver histopathology: among vehicle-, OCH- and KRN-treated mice; for lymphocytes in the omentum: histology; for histopathological scoring of degree of apoptosis in spleen: vehicle-treated: moderate. From the text: FIG. 6: Histopathology of septic B6 mice treated with glycolipid agonists of iNKT cells. […] Lymphocyte migration to the omentum is also ameliorated in OCH-treated mice compared to vehicle- and KRN7000-treated mice. There were no histopathological differences in the liver. Images are representative of 4 animals per treatment group (size bar, 50 μm). (b) Histopathological scoring of the degree of apoptosis observed within the spleens of sham and septic B6 mice treated with vehicle, KRN7000, or OCH (n=4 animals per treatment group). Apoptosis was defined histologically by the presence of cell clusters with nuclear shrinkage (karyorrhexis), dark eosinophilic cytoplasm, intact plasma membrane, and relative paucity of surrounding inflammatory cells within the splenic follicles on H&E staining. Scores assigned to each animal by a blinded independent pathologist were as follows: 0 for complete absence of apoptosis; 1 for mild presence of apoptosis (0-15% per follicle); 2 for moderate apoptosis (16-30% per follicle); and 3 for severe apoptosis (31-45% per follicle). ***p<0.0001 by two-tailed Mann Whitney U test.
Liver, spleen, and omentum from sham B6 mice, and vehicle-, OCH-, and KRN7000-treated septic B6 mice were fixed in 10% neutral buffered formalin, embedded in paraffin, sectioned, and stained with H&E or subjected to TUNEL staining using a commercially available kit (Calbiochem). At least four stained sections per spleen from four animals per treatment group were examined and scored for apoptosis by a board-certified veterinary pathologist (Welch) who was blinded to the study design. Apoptosis was defined histologically by the presence of cell clusters with nuclear shrinkage (karyorrhexis), dark eosinophilic cytoplasm, intact plasma membrane, and relative paucity of surrounding inflammatory cells within the splenic follicles on H&E staining (34). Scores assigned to each animal were as follows: 0 for complete absence of apoptosis; 1 for mild presence of apoptosis (0-15% per follicle); 2 for moderate apoptosis (16-30% per follicle); and 3 for severe apoptosis (31-45% per follicle). Photomicrographs were taken using a Nikon DS-Fi1 digital camera using NIS-elements software.

Assay [4] relates to splenic T, B, NK cells and macrophages. Nature of the assay: Annexin V / 7-AAD flow cytometry of apoptotic splenic cell populations in septic B6 mice. The following applies: for NK cell apoptosis / frequency of apoptotic macrophages: spleen; for frequency of apoptotic macrophages: compared to vehicle-treated mice. From the text: FIG. 7: Analysis of apoptotic cell populations in the spleens of septic B6 mice. Splenocytes from sham and septic B6 mice treated with OCH, KRN7000, or vehicle were stained for T, B, and Natural Killer (NK) cells, and macrophages, and further stained for Annexin V (a marker for early apoptosis) and 7-AAD viability dye. Early and late apoptotic cells (Annexin V+7AAD- and Annexin V+7AAD+ cells respectively) were quantified and compared between treatments. […] (n=3-6 mice per group). *p<0.05, **p<0.01, ***p<0.001 by one-way ANOVA with post-hoc Tukey's multiple comparison test. Data are representative of 3 independent experiments.
FIG. 8: Gating strategy to identify the percentage of apoptotic and necrotic immune cell populations. CD3-APC is shown as an example, but the same strategy was used for macrophages (F480-APC), B cells (B220-APC), and Natural Killer (NK) cells (NK1.1-PE).
Mouse hepatic, splenic, and omental cells (1×106), and human PBMCs (1×106) were washed with cold FACS buffer [PBS+2% fetal bovine serum (FBS)+0.1% sodium azide] and incubated with 5 μg/ml anti-mouse CD16/CD32 mAb (clone 2•4G2, Fc-block, eBiosciences) for 20 min on ice before staining with fluorescent monoclonal antibodies (mAbs) diluted in FACS buffer at 4° C. for 30-40 min. Cells were then washed and flow cytometry was performed using FACSCanto II (BD) with FlowJo software (Treestar).

The mark [5] stands for this setting: compared to vehicle- and KRN7000-treated mice.

The structures appear in SMILES notation.

Regarding `CCCCCCCCCCCCCCCCCCCCCCCCCC(=O)N[C@@H](CO[C@H]1O[C@H](CO)[C@H](O)[C@H](O)[C@H]1O)[C@H](O)[C@H](O)CCCCCCCCCCCCCC` [KRN7000, reference compound], the “serum levels of IFN-γ between 12 and 24 hours” value in assay [1] (4 μg i.p.) is reported as “elevated”. Moreover, in assay [2], the “microbial load (bacterial counts in blood and multiple organs)” value is recorded as “similar”. Also, in assay [3], the liver histopathology result is “did not observe overt differences”, the “lymphocytes in the omentum” value is recorded as “significant increase” and the “histopathological scoring of degree of apoptosis in spleen” value was “severe (3 for severe apoptosis (31-45% per follicle))”. For the same compound, in assay [4], the NK cell apoptosis entry is on record as “trend toward reduced apoptosis” and the “frequency of apoptotic macrophages” value is given as “reduced the frequency of apoptosis significantly”.
Turning to `CCCCCCCCCCCCCCCCCCCCCCCC(=O)N[C@@H](COC1OC(CO)C(O)C(O)C1O)[C@H](O)[C@H](O)CCCCC` (stereo partly drawn) [OCH], in assay [1] (4 μg i.p.), the “serum IFN-γ at 24 hours” value is recorded as “almost undetectable”. Also, in assay [1] (4 μg i.p., ELISA), the “time of peak of serum IFN-γ” value worked out at 12 h and the “time of peak of serum IL-4” value came out at 2 h. Besides, the “serum IL-4 at 12 to 24 hours” value in assay [1] (4 μg i.p., relative to 2 hour peak) is recorded as “significantly reduced”. In addition, in assay [1] (OCH compared to KRN7000), the “IL-4:IFN-γ ratio based on peak values” is “higher”. The “microbial load (bacterial counts in blood and multiple organs)” value in assay [2] is recorded as “did not worsen”. Further, in assay [3], the liver histopathology result was “did not observe overt differences”, the “lymphocytes in the omentum” value is “fewer” and the “histopathological scoring of degree of apoptosis in spleen” value is “mild (1 for mild presence of apoptosis (0-15% per follicle))”. In addition, the “apoptotic cells within the spleen (H&E, TUNEL)” value in assay [3] (setting [5]) is on record as “significant reduction”. For the same compound, in assay [4] (setting [5]), the “apoptosis of splenic B cells” value was “significantly reduced” and the “apoptosis of splenic T cells” value is reported as “significantly reduced”. Also, in assay [4], the NK cell apoptosis result is listed as “appeared to be reduced” and the “frequency of apoptotic macrophages” value is recorded as “reduced the frequency of apoptosis significantly”.

(Values after patent US20170027973A1, “MODULARION OF INVARIANT NATURAL KILLER T CELLS IN THE TREATMENT OF SEPSIS” (LONDON HEALTH SCIENCES CENTRE RESEARCH INC., priority 2014, published 2017).)
